Key:
[1] = tested on: hippocampal neurons; assay: Glutamate-triggered apoptosis in hippocampal neurons; assay type: cell-based; details: pretreated 30 minutes, 50 μM glutamate for 16 hours, compared with BDNF, FIG. 6
Protocol: To examine whether these compounds could promote neuronal survival, hippocampal neurons were prepared and the cultures were pretreated with various flavone derivatives for 30 minutes, followed by treatment with 50 μM glutamate for 16 hours.

[2] = tested on: Erk; assay: Western analysis of Erk phosphorylation in hippocampal neurons; assay type: cell-based
Protocol: (§1) To further examine whether 7,8-dihydroxyflavone can stimulate TrkB-mediated downstream signaling cascades, Western analysis was performed.
To probe the time course of 7,8-dihydroxyflavone triggered TrkB activation, hippocampal neurons were treated with 7,8-dihydroxyflavone at 500 nM and phosphorylation of Erk and Akt was determined over time by Western analysis. […] Stimulation of Erk and Akt by 7,8-dihydroxyflavone also occurred in a dose dependent manner.

[3] = target: T1, TrkB (Mus musculus, UniProt P15209); assay: TrkB activation in mouse brain after intraperitoneal injection; assay type: in vivo, mice; details: 5 mg/kg intraperitoneally
T1 construct: from tissue; host or cells: mouse brain
T1 sequence (P15209 32-821): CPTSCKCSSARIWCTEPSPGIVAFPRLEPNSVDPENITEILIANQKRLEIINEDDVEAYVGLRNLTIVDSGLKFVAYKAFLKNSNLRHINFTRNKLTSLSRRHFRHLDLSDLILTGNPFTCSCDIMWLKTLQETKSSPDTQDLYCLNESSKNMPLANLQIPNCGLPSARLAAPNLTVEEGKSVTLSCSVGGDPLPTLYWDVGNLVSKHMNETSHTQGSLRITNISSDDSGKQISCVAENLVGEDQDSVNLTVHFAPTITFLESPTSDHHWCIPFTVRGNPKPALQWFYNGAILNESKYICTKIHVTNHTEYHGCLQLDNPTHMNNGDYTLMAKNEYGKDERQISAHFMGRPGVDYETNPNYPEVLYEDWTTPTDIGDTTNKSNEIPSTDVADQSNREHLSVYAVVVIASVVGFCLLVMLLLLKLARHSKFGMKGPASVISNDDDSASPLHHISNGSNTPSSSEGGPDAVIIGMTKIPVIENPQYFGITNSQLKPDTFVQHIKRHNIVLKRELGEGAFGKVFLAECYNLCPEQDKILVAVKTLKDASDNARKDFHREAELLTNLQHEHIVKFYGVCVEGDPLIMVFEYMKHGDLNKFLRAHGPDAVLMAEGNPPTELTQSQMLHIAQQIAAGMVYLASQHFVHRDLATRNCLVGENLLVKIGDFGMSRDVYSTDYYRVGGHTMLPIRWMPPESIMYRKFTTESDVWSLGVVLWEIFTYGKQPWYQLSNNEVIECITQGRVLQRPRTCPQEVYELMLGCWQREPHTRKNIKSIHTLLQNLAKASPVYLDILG
Protocol: To assess whether 7,8-dihydroxyflavone can provoke TrkB activation in the brain, mice were intraperitoneally injected with a dose of 5 mg/kg and analyzed at various time points. […] Further, as shown in FIG. 12 (right panel), the protein and mRNA levels of the neurotrophic receptors were not altered after treatment with 7,8-dihydroxyflavone.

[4] = tested on: Caspase-3 activation; assay: Glutamate-provoked Caspase-3 activation in wild-type and TrkB-/- cortical neurons; assay type: cell-based, mice; details: FIG. 21
Protocol: To determine whether 7,8-dihydroxyflavone can selectively activate TrkB receptor and prevent neuronal cell death, cortical neurons were prepared from homozygous pups of TrkB+/−mice, which were mated to the same genotype. […] Glutamate nonselectively elicited weak TrkA phosphorylation in both wild-type and TrkB-null neurons (FIG. 21, row 3).

[5] = tested on: Caspase-3 activation; assay: Caspase-3 activation in wild-type and TrkC-/- cortical neurons; assay type: cell-based, mice; details: FIG. 22 row 5
Protocol: (§2) To further assess whether 7,8-dihydroxyflavone blocks neuronal apoptosis in a TrkB dependent manner, cortical neurons were prepared from homozygous pups of TrkC+/−mice, which were mated to the same genotype. […] Glutamate weakly stimulated both TrkA and TrkB faint phosphorylation regardless of TrkC genotype (FIG. 22, rows 1 and 3). The spontaneous caspase-3 activation in TrkC−/− neurons was suppressed by 7,8-dihydroxyflavone (FIG. 22, row 5).

[6] = tested on: caspase-3 activation; assay: Active caspase-3 ELISA in glutamate-treated cortical neurons; assay type: cell-based, rat; details: 50 nM or higher concentrations, 50 μM glutamate for 16 hours, FIG. 29
Protocol: To quantitatively compare the anti-apoptotic activity of 7,8-DHF and 4′-DMA-7,8-DHF, cortical neurons were prepared from E16 rat embryonic cells and pretreated with various indicated concentrations of 4′-DMA-7,8-DHF and 7,8-DHF for 30 min, followed by 50 μM glutamate for 16 hours. The cell lysates were quantitatively analyzed with an active caspse-3 ELISA.

[7] = tested on: KA-induced neuronal apoptosis; assay: Kainic acid time course assay, oral TrkB agonists (caspase-3 immunoblot of brain lysates); assay type: in vivo, C57BL/6J mice; details: 1 mg/kg orally, KA 20 mg/kg i.p., FIG. 30 right
Protocol: Male C57BL/6 mice age 60 days were orally injected with a single dose of 4′-DMA-7,8-DHF or 7,8-DHF (1 mg/kg each). KA (20 mg/kg) was i.p. injected. Animals were continually monitored for 2 hours for the onset of seizure activity. At 0, 4 and 8 hours following TrkB agonist treatment, the animals were sacrificed and the brain lysates were analyzed by immunoblotting with p-TrkB-Y817, active caspase-3 and total TrkB antibodies.
To investigate whether these compounds exert any neuroprotective effects in animals, a time course assay was conducted.

[8] = tested on: progenitor proliferation in hippocampus; assay: Neurogenesis analysis in hippocampus (BrdU); assay type: in vivo, C57BL/6J mice; details: 5 mg/kg daily for 21 days, compared to vehicle control, FIGS. 32 and 33
Protocol: Adult male mice (2-3 months old) were orally injected with saline, 4′-DMA-7,8-DHF and 7,8-DHF (5 mg/kg) for 21 days. Then BrdU (50 mg/kg) was i.p. injected. In 2 hours, the mice were perfused with 4% paraformaldehyde. Immunohistochemical staining was performed on formalin-fixed paraffin-embedded sections. Sections from brain were cut, deparaffinized in xylene and rehydrated in graded alcohols. The slides were boiled in 10 mM citric acid (pH 6.0) for 10 minutes followed by an incubation in 2 N HCl for 10 minutes in room temperature. The slides were then permeabilized and blocked with 1% BSA in 0.2% PBST. The incorporated BrdU were stained using anti-BrdU-FITC (Abcam, Inc; Cambridge, Mass.) at 4° C. for 16 hours. After three washes in PBS, the cells were stained with DAPI for another 10 minutes at room temperature. The slides were mounted with AquaMount (Lerner Laboratories; Pittsburgh, Pa.) containing 0.01% 1,4-diazobicyclo(2,2,2)octane and examined under a fluorescence microscope.
To test whether increasing TrkB activation by 4′-dimethylamino-7,8-dihydroxyflavone would elevate neurogenesis, adult male C57BL/6J mice were injected daily for 21 days with either vehicle, 7,8-DHF, or 4′-DMA-7,8-DHF (5 mg/kg). At the end of treatment (day 21), the animals were injected with BrdU (50 mg/kg, i.p.) to label the dividing cells and were sacrificed 2 hours later. […]

[9] = tested on: infarct volume
[10] = target: T2, TrkA (Mus musculus, UniProt Q3UFB7); assay: Trk activation in wild-type and TrkC knockout cortical neurons: TrkA; assay type: cell-based, mice; set-up: from tissue; host or cells: mouse brain; details: FIG. 22
T2 sequence (Q3UFB7 34-799): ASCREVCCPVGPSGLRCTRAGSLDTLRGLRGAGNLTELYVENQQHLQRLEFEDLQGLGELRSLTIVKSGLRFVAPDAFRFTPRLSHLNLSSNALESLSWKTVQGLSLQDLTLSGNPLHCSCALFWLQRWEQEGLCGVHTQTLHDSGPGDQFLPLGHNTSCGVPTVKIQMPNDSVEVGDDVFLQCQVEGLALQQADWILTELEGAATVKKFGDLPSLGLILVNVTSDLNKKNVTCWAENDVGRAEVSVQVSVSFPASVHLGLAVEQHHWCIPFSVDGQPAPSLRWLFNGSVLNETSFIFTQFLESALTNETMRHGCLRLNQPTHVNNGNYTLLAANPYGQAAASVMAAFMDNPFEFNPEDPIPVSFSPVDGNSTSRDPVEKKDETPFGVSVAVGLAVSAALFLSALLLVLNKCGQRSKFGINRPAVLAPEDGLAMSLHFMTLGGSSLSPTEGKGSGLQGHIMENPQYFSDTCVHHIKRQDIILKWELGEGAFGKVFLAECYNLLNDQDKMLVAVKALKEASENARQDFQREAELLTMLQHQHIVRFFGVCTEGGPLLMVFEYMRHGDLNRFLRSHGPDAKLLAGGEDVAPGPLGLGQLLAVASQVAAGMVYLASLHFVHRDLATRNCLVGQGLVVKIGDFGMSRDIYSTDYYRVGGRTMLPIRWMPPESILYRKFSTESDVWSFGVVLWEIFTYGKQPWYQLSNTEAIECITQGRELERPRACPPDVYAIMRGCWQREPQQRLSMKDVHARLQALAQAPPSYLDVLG
Protocol: as §2

[11] = target: T2, TrkA; assay: Immunoblotting of brain lysates from forced swim test mice: TrkA; assay type: in vivo; set-up: from tissue; host or cells: mouse brain; details: 5 mg/kg, 21 days oral, anti-p-TrkA 794, FIG. 35
Protocol: To explore whether 4′-DMA-7,8-DHF and 7,8-DHF have any antidepressant effect, a forced swim test (6 minutes, immobility recorded in the last 4 minutes) was conducted after chronic treatment of male C57BL/6J mice (8 mice/group) for 21 days via oral injection.

[12] = target: TrkB (Rattus norvegicus, UniProt Q63604); assay: Western analysis of TrkB activation in hippocampal neurons; assay type: cell-based; set-up: endogenous in cells; host or cells: primary hippocampal neurons; details: FIG. 9
Chain of TrkB (Rattus norvegicus, UniProt Q63604) (Q63604 32-821): as the sequence (P15209 32-821) above, with T3M, S9T, A10T, V32I, R63K, S84G, M153T, L185I, S394T, S770N counted along it
Protocol: as §1
To further test that the stimulatory effect of 7,8-dihydroxyflavone is mediated through TrkB, cells were either untreated or treated with K252a, a selective inhibitor of the tyrosine kinase activity of the Trk family of neutrophin receptors.

SMILES: O=c1cc(-c2ccccc2)oc2c(O)c(O)ccc12 [7,8-dihydroxyflavone]
- protection of hippocampal neurons from glutamate-induced apoptosis [1]: more protective effect on the neurons than did the positive control BDNF
- time at which Erk phosphorylation was observed ([2]; 500 nM): 5 min
- time by which Erk phosphorylation faded ([2]; 500 nM): 180 min
- Erk activation (Western) ([2]; FIG. 9): activated
- concentration at which Erk phosphorylation was observed ([2]; treatment for 30 minutes): 250 nM
- TrkB phosphorylation in the brain ([3]; 2 hours after injection, FIG. 12): selectively phosphorylated
- protein and mRNA levels of the neurotrophic receptors ([3]; FIG. 12 right): not altered
- TrkB phosphorylation in the hippocampus (immunofluorescent staining) ([3]; FIG. 13): substantial TrkB phosphorylation
- Glutamate-provoked Caspase-3 activation in TrkB-/- neurons [4]: not
- Glutamate-provoked Caspase-3 activation in wild-type neurons [4]: substantially blocked
- spontaneous caspase-3 activation in TrkC-/- neurons [5]: suppressed
- glutamate-triggered caspase-3 activation ([5]; regardless of TrkC genotype): significantly diminished
- Glutamate-provoked caspase-3 activation [6]: substantially blocked
- KA-induced caspase-3 activation at 4 h [7]: reduced
- active caspase-3 at 8 h [7]: slightly increased
- neurogenesis (BrdU) [8]: increased neurogenesis
- survival of ischemic insult and treatment ([9]; 5 mg/kg intraperitoneally): All animals included in the study survived
- infarct volumes ([9]; 5 mg/kg intraperitoneally 5 minutes prior to reperfusion, TTC 24 hours after MCAO, FIG. 20): reduced infarct volumes
- TrkA activation in wild-type and TrkC knockout neurons [10]: not TrkA activation
- TrkA activation in mouse brain [11]: not TrkA activation
- activation of TrkB (Western) [12]: demonstrated activation of TrkB

From US9895344B2, “Treating various disorders with 7,8-dihydroxyflavone and derivatives thereof” (EMORY UNIVERSITY, priority 2008, dated 2018)
